Measured values as given in patent US9598416B2, “Substituted benzothienyl-pyrrolotriazines and uses thereof in the treatment cancer” (Bayer Intellectual Property GmbH, priority 2011, dated 2017).
Counter-ions that a name gives are not always drawn. Like-named read-outs stand apart in the source and are kept apart here.

Assays:
[1] = target: human FGFR-3 (Homo sapiens (Human), UniProt P22607); assay: FGFR-3 kinase assay (TR-FRET); type: biochemical; details: 10 μM ATP; compounds of the invention
[2] = target: human mTOR (Homo sapiens (Human), UniProt P42345); assay: mTOR kinase assay (TR-FRET, for comparative purposes); type: biochemical; details: for inhibition at 1 µM: read-out: mTOR % inhibition @ 1 μM
Excerpt: mTOR inhibitory activity of the compounds of the present invention was quantified employing the TR-FRET based mTOR assay as described in the following paragraphs: Recombinant fusion tagged mTOR protein [glutathione-S-transferase (GST) fused to human mTOR amino acids from 1360 to 2549], expressed in insect cells and purified by glutathione-sepharose affinity chromatography, was purchased from Invitrogen (Cat.-No. 4753) and used as enzyme. As substrate for the kinase reaction, a recombinant fusion protein of GFP and 4E-BP1 (purchased from Invitrogen, Cat.-No. PV4759) was used. Test compounds were dissolved in DMSO to generate 10 mM stock solutions. […] The resulting mixture was incubated for 1 h at 22° C. to allow formation of the complex between the phosphorylated substrate and the Tb-chelate labelled antibody. Subsequently, the amount of phosphorylated substrate was evaluated by measurement of the resonance energy transfer from the Tb-chelate to the GFP. For this, the fluorescence emissions at 495 nm and 520 nm after excitation at 340 nm was measured in an Envision 2104 multilabel reader (Perkin-Elmer). The ratio of the emissions at 520 nm and at 495 nm was taken as the measure for the amount of phosphorylated substrate.

[3] = 1 μM test compound, mean inhibition values

human mTOR, sequence (P42345 1360-2549): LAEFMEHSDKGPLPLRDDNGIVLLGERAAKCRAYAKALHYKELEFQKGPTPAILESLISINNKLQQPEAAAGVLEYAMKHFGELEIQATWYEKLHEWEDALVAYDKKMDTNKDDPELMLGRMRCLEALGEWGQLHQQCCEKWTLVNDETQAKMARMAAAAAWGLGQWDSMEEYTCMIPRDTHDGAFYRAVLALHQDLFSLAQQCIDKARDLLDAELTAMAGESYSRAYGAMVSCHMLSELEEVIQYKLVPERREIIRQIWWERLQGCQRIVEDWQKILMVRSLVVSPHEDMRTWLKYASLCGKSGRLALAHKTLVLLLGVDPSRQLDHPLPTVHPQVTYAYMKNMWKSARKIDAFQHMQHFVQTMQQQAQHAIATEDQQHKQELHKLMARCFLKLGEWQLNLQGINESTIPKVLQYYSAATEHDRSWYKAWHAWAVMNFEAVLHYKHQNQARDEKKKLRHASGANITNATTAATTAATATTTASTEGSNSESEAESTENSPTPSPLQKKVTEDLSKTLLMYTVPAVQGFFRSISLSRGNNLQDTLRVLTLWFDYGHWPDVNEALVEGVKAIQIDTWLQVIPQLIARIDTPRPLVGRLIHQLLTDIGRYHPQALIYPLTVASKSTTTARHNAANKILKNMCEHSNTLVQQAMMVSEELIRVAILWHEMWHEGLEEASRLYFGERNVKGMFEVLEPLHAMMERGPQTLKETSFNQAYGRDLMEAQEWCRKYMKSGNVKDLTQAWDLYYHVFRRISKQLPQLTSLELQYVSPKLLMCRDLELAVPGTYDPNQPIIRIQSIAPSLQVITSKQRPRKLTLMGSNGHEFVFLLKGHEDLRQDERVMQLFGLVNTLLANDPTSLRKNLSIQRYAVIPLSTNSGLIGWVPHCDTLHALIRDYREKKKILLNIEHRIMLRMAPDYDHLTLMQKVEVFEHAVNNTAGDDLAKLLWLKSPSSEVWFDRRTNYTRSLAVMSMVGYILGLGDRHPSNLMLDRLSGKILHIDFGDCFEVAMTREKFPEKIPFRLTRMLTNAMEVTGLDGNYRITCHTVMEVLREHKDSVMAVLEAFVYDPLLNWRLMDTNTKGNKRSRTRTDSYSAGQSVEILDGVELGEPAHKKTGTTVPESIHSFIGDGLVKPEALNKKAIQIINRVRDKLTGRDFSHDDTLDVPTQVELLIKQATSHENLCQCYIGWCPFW
human FGFR-3, sequence (P22607 397-806): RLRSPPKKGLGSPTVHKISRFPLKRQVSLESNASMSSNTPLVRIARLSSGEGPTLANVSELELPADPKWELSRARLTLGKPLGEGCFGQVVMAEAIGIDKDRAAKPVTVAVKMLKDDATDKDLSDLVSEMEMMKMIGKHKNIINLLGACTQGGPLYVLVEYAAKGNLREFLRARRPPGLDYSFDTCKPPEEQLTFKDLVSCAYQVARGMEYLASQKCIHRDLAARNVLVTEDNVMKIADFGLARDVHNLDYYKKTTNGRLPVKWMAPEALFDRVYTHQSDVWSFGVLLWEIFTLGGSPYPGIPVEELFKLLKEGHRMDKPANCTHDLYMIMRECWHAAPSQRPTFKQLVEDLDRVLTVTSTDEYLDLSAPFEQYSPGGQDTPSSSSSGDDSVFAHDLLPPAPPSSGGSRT

| SMILES | IC50 [1] [nM] | mTOR % inhibition @ 1 μM [2, 3] | inhibition at 1 µM [2] [%] | inhibition at 1 µM [2, 3] [%] |
| --- | --- | --- | --- | --- |
| COc1cc(C)cc2cc(-c3c(CNCCCO)cn4ncnc(N)c34)sc12 [Example 20, 3-({[4-Amino-5-(7-methoxy-5-methyl-1-benzothiophen-2-yl)pyrrolo[2,1-f][1,2,4]triazin-6-yl]-methyl}amino)propan-1-ol dihydrochloride] | 15.2 | no inhib. effect detect. | – | – |
| COc1cc(C)cc2cc(-c3c(CN4CCNC(=O)C4)cn4ncnc(N)c34)sc12 [Example 11, 4-{[4-Amino-5-(7-methoxy-5-methyl-1-benzothiophen-2-yl)pyrrolo[2,1-f][1,2,4]triazin-6-yl]-methyl}piperazin-2-one] | 0.4 | no inhib. effect detect. | – | – |
| COc1cc(C)cc2cc(-c3c(CN[C@H]4CCNC4=O)cn4ncnc(N)c34)sc12 [Example 27, (3S)-3-({[4-Amino-5-(7-methoxy-5-methyl-1-benzothiophen-2-yl)pyrrolo[2,1-f][1,2,4]triazin-6-yl]-methyl}amino)pyrrolidin-2-one dihydrochloride] | 0.5 | – | 5 | – |
| COc1cc(C)cc2cc(-c3c(CN(C)CC(N)=O)cn4ncnc(N)c34)sc12 [Example 14, N^2-{[4-Amino-5-(7-methoxy-5-methyl-1-benzothiophen-2-yl)pyrrolo[2,1-f][1,2,4]triazin-6-yl]-methyl}-N^2-methylglycinamide] | 0.8 | – | – | 0.3 |
| COc1cc(Cl)cc2cc(-c3c(CN4CCNC(=O)C4)cn4ncnc(N)c34)sc12 [Example 31, 4-{[4-Amino-5-(5-chloro-7-methoxy-1-benzothiophen-2-yl)pyrrolo[2,1-f][1,2,4]triazin-6-yl]methyl}-piperazin-2-one] | 0.3 | – | – | 9.1 |
| COc1cc(C)cc2cc(-c3c(COCCN)cn4ncnc(N)c34)sc12 [Example 8, 6-[(2-Aminoethoxy)methyl]-5-(7-methoxy-5-methyl-1-benzothiophen-2-yl)pyrrolo[2,14][1,2,4]-triazin-4-amine dihydrochloride] | 0.2 | – | – | 4.7 |
| Cc1ccc2sc(-c3c(CN4CCNC(=O)C4)cn4ncnc(N)c34)cc2c1 [Example 29, 4-{[4-Amino-5-(5-methyl-1-benzothiophen-2-yl)pyrrolo[2,1-f][1,2,4]triazin-6-yl]methyl}piperazin-2-one] | 18.7 | – | – | 0.6 |
